# Active and inactive are the calls of the source.
# Key:
# [1] = target: T1, Corticotropin-releasing factor receptor 2/Corticotropin-releasing factor-binding protein (Homo sapiens, UniProt P24387+Q13324); assay: Dose Response confirmation of uHTS hits for small molecule antagonists of the CRF-binding protein and CRF-R2 receptor complex.; type: functional; settings: read-out: IC50_Mean
# T1 sequence (Q13324 whole entry): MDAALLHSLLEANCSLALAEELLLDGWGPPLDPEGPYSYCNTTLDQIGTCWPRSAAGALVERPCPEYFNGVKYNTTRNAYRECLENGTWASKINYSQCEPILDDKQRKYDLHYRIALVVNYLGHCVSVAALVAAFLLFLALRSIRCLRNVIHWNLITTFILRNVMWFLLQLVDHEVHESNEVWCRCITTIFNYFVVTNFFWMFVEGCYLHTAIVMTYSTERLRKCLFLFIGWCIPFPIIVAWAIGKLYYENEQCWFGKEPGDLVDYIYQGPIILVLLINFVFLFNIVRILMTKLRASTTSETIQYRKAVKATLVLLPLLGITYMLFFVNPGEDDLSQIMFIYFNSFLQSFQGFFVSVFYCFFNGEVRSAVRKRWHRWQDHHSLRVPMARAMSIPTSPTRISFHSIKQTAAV
# T1 sequence (P24387 whole entry): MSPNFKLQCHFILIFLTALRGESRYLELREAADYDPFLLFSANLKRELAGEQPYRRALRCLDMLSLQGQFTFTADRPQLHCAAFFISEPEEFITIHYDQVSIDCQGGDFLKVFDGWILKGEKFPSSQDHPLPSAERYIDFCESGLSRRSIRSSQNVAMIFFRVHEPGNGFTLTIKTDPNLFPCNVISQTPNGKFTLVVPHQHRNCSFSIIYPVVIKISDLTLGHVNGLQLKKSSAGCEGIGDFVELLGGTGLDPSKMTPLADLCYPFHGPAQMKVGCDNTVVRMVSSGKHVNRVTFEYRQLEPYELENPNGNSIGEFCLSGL
# [2] = target: T1, Corticotropin-releasing factor receptor 2/Corticotropin-releasing factor-binding protein; assay: activators of CRF receptor 2 with binding protein – uHTS hits, confirmation (AID 602473); type: functional; settings: read-out: EC50_Mean
# [3] = HEp-2 cell cytotoxicity, dose response, cytotoxicity control for RSV inhibitor project, HTS (AID 2410); type: functional; settings: human respiratory syncytial virus
# [4] = target: Cytochrome P450 2C9 (Homo sapiens, UniProt P11712)
# [5] = target: Cytochrome P450 3A4 (Homo sapiens, UniProt P08684);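 further: CYP3A4 tested as one member of a cytochrome P450 panel screen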
# [6] = microbe, parasite or virus in culture; type: functional; settings: Mycobacterium tuberculosis
# [7] = target: T2, Calpain-2 catalytic subunit (Sus scrofa, UniProt P43367); assay: pig calpain II inhibitor potency, dose response, biochemical, fluorogenic peptide substrate (AID 1420); type: functional
# T2 sequence (P43367 whole entry): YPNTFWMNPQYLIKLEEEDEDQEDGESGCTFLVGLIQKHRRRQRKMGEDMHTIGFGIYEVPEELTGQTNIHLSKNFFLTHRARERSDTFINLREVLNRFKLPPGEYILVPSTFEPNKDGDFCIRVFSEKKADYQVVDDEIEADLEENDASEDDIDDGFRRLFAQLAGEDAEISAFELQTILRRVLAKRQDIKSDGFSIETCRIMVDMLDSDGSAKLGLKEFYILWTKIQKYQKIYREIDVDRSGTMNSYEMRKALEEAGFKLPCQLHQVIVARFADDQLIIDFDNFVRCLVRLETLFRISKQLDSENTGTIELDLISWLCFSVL
# [8] = system: Streptococcus sp. 'group A'; assay: growth inhibition of control SK(-) GAS strain, dose response, counter-screen for streptokinase expression inhibitor project, luminescence, kanamycin, BacTiterGlo, confirmation (AID 1900); type: functional, organism-based
# [9] = target: T3, Streptokinase A (Streptococcus pyogenes serotype M1, UniProt P10520); assay: S. pyogenes streptokinase expression inhibitors, potency, dose response, plasminogen activation absorbance, OD405 (AID 1914); type: functional, Streptococcus pyogenes M1 GAS;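 further: secreted streptokinase activity via plasminogen activation per viability signal from cell pellet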
# T3 sequence (P10520 whole entry): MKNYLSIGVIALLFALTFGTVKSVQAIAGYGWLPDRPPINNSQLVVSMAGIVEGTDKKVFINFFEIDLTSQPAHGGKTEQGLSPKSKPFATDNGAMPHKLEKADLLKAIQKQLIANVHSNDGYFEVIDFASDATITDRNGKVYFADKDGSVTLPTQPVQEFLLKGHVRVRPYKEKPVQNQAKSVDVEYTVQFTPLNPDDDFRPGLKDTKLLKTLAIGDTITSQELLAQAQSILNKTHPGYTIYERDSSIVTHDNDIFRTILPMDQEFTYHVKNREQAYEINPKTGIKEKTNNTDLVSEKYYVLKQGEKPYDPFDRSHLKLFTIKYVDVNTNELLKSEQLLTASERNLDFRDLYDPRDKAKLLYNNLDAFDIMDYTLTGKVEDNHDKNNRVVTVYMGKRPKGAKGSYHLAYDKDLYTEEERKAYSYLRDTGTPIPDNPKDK
# [10] = system: Streptococcus; assay: Group A Streptococcus viability loss, dose response, counter-screen for streptokinase expression inhibitor project, luminescence, BacTiterGlo (AID 1915); type: functional, organism-based;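 further: potency for reduction of bacterial viability or growth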
# [11] = Luminescence Cell-Based Dose Retest to Confirm Inhibitors of Cancer Stem Cells. [Related pubchem assays (depositor defined):AID2717, AID2721]; type: functional; settings: Homo sapiens
# [12] = system: INS1; assay: beta cell apoptosis inhibitors, cytokine rescue, dose response, luminescence, retest (AID 449756); type: functional, cell-based; settings: Rattus norvegicus;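 further: cell death triggered by IL-1 beta plus TNF-alpha plus IFN-gamma mixture; protective hits raise ATP signal compared with cytokine alone wells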
# Chain of Cytochrome P450 3A4 (P08684 whole entry): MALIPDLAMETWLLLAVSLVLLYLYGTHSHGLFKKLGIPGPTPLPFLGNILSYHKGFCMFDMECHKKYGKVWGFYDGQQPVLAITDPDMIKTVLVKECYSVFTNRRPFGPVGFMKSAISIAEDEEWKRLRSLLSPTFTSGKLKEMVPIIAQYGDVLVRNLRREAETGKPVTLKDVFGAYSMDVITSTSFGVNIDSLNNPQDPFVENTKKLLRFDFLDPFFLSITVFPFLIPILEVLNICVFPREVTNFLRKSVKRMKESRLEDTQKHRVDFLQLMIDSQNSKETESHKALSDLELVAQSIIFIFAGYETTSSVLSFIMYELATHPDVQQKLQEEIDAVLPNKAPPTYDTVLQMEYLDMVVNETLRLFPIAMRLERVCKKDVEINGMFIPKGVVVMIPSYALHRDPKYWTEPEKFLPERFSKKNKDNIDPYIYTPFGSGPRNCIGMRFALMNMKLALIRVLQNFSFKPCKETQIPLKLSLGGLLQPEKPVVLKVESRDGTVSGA
# Chain of Cytochrome P450 2C9 (P11712 whole entry): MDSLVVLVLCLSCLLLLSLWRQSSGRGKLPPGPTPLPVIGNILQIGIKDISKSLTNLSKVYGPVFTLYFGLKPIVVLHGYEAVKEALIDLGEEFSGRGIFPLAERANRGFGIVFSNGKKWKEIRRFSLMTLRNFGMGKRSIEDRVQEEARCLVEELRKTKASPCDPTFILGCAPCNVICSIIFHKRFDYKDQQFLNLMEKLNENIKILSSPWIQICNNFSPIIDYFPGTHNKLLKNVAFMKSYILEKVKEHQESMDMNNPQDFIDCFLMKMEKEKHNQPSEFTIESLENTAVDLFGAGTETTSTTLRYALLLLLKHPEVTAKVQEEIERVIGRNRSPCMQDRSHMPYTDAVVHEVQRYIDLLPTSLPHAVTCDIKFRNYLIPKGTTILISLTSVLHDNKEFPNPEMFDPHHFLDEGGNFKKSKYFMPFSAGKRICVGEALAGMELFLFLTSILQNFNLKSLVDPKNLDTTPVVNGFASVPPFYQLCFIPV
structure (smiles),measurement,setting,value
FC(F)(F)c1ccccc1-c1nc(-c2ccncc2)no1,IC50,[1],> 47.1 µM (inactive)
same,EC50,[2],> 53 µM (inactive)
same,CC50,[3],30.5 µM (active)
O=C(COC(=O)COc1ccc(Cl)cc1Br)NCc1cccs1,IC50,[1],> 47.1 µM (inactive)
same,EC50,[2],> 53 µM (inactive)
Cc1ccc(C)n1NC(=O)c1ccccc1,AC50,[4],0.141 µM (inconclusive)
same,AC50,[5],31.6 µM (inconclusive)
COc1ccc2nc(NN=C3C(=O)CC(C)(C)CC3=O)sc2c1,CC50,[6],26.2 µM (active)
Cc1ccc(-c2csc(NC(=S)NC(=O)c3ccco3)n2)cc1,IC50,[7],4.46 µM (not active)
CCc1cccc2c(SCC(=O)NCC3CCCO3)nc(-c3ccc(F)cc3)nc12 (stereo not given),IC50,[7],26.2 µM (not active)
CCN(c1cccc(C)c1)c1nc2ccsc2c(=O)s1,IC50,[1],> 47.1 µM (inactive)
same,EC50,[2],> 53 µM (inactive)
Clc1ccc2nc(-c3ccccn3)c(Nc3ccc4c(c3)OCO4)n2c1,EC50,[8],6.89 µM (active)
same,EC50,[9],> 150 µM (not active)
same,EC50,[10],12.7 µM (active)
same,IC50,[7],0.608 µM (not active)
C[C@@H](Cc1ccccc1)Nc1ncnc2c1ncn2[C@@H]1O[C@@H](CO)[C@H](O)[C@@H]1O,AC50,[5],10 µM (inconclusive)
Cc1ccccc1C(=O)Nc1ccc(-c2nc3cc(C(=O)c4ccccc4)ccc3[nH]2)cc1,AC50,[11],1.36 µM (active)
same,CC50,[6],> 40 µM (active)
same,CC50,[3],6.02 µM (active)
CC(=O)c1ccccc1NC(=O)Cn1c(=O)cnc2ccccc21,IC50,[1],> 47.1 µM (inactive)
same,EC50,[2],> 53 µM (inactive)
CC(NC(=O)CCCCCN1C(=O)c2ccccc2C1=O)c1ccc2c(c1)CCCC2 (stereo not given),IC50,[7],10.7 µM (not active)
CCCCCC(=O)NNC(=O)c1ccc(F)cc1,IC50,[1],> 47.1 µM (inactive)
same,EC50,[2],> 53 µM (inactive)
Nc1ccc(Nc2ccc([N+](=O)[O-])cc2[N+](=O)[O-])cc1,AC50,[12],59.4 µM (active)
O=C(O)c1nc2nc(Cl)c(Cl)nc2[nH]1,AC50,[5],3.16 µM (inconclusive)
c1ccc(CN2CCC3(CCCc4ccccc43)CC2)cc1,CC50,[6],> 40 µM (active)
O=C1NN=C(c2ccc(Cl)cc2)CC1c1cccc(Br)c1 (stereo not given),IC50,[7],12.5 µM (not active)
CCC1=C(OC(=O)N(CC)CC)N2C(=O)O/C(=N\CCc3c[nH]c4ccccc34)[C@]2(Cc2ccccc2)[C@H]2C1=CC[C@H]1C(=O)NC(=O)[C@H]12,CC50,[6],> 40 µM (active)

# From ChEMBL document CHEMBL1201862, “PubChem BioAssay data set” (2004)
